# Laboratory results reported in US20250170099A1, “TREATMENT OF POSTNATAL DEPRESSION” (GH RESEARCH IRELAND LIMITED, priority 2022, published 2025).
# Tested on: patients with postpartum depression (PPD)
# Test: Open-label clinical trial of inhaled 5-MeO-DMT in postpartum depression (one patient, IDR 6 mg then 12 mg)
# Protocol: The single-arm, open-label clinical trial will involve 15 adult female patients with clinically diagnosed postpartum depression (PPD).
# The second dose (12 mg) will only be administered if: • a. […] The 6 mg dose was safe and well-tolerated according to the investigator, • c. Any psychoactive effects (PsE) of the prior dose have subsided, and • d. Pre-dose vital parameters and forced expiratory volume in one second (FEV1) are in normal range, or if outside of the normal range, are not clinically significant according to the investigator. • 3. Similarly, a third dose (18 mg) will only be administered if: • a. […] The 12 mg dose was safe and well-tolerated according to the investigator, and • c. Any PsE of the prior dose have subsided, and • d. Pre-dose vital parameters and forced expiratory volume in one second (FEV1) are in normal range, or if outside of the normal range, are not clinically significant according to the investigator.
# The patients will be assessed for a peak psychedelic experience (based on a patient-scored visual analogue scale, the PE scale), sedation, and other endpoints after dosing. Follow-up visits are planned for Day 1, and Day 7 after the dosing day.
smiles,measurement,setting,value
COc1ccc2[nH]cc(CCN(C)C)c2c1 [5-MeO-DMT],MADRS apparent sadness improvement,2 hr,5
same,MADRS apparent sadness score,2 hr,0
same,MADRS concentration difficulties improvement,2 hr,0
same,MADRS concentration difficulties score,2 hr,0
same,MADRS inability to feel improvement,2 hr,3
same,MADRS inability to feel score,2 hr,0
same,MADRS inner tension improvement,2 hr,5
same,MADRS inner tension score,2 hr,0
same,MADRS lassitude improvement,2 hr,3
same,MADRS lassitude score,2 hr,0
same,MADRS pessimistic thoughts improvement,2 hr,4
same,MADRS pessimistic thoughts score,2 hr,0
same,MADRS reduced appetite improvement,2 hr,0
same,MADRS reduced appetite score,2 hr,0
same,MADRS reduced sleep improvement,2 hr,0
same,MADRS reduced sleep score,2 hr,5
same,MADRS reported sadness improvement,2 hr,4
same,MADRS reported sadness score,2 hr,0
same,MADRS suicidal thoughts improvement,2 hr,0
same,MADRS suicidal thoughts score,2 hr,0
same,"adverse events (abdominal pain, headache)",Day 0,"mild, short-lasting and resolved spontaneously"
same,BPRS anxiety improvement,Day 1,6
same,BPRS anxiety score,Day 1,1
same,BPRS blunted affect improvement,Day 1,0
same,BPRS blunted affect score,Day 1,1
same,BPRS conceptual disorganization improvement,Day 1,0
same,BPRS conceptual disorganization score,Day 1,1
same,BPRS depressive mood improvement,Day 1,5
same,BPRS depressive mood score,Day 1,1
same,BPRS disorientation improvement,Day 1,0
same,BPRS disorientation score,Day 1,1
same,BPRS emotional withdrawal improvement,Day 1,4
same,BPRS emotional withdrawal score,Day 1,1
same,BPRS excitement improvement,Day 1,1
same,BPRS excitement score,Day 1,1
same,BPRS grandiosity improvement,Day 1,0
same,BPRS grandiosity score,Day 1,1
same,BPRS guilt feelings improvement,Day 1,5
same,BPRS guilt feelings score,Day 1,1
same,BPRS hallucinatory behaviour improvement,Day 1,0
same,BPRS hallucinatory behaviour score,Day 1,1
same,BPRS hostility improvement,Day 1,0
same,BPRS hostility score,Day 1,1
same,BPRS mannerisms and posturing improvement,Day 1,0
same,BPRS mannerisms and posturing score,Day 1,1
same,BPRS motor retardation improvement,Day 1,0
same,BPRS motor retardation score,Day 1,1
same,BPRS somatic concern improvement,Day 1,5
same,BPRS somatic concern score,Day 1,1
same,BPRS suspiciousness improvement,Day 1,0
same,BPRS suspiciousness score,Day 1,1
same,BPRS tension score,Day 1,1
same,BPRS uncooperativeness improvement,Day 1,0
same,BPRS uncooperativeness score,Day 1,1
same,BPRS unusual thought content improvement,Day 1,0
same,BPRS unusual thought content score,Day 1,1
same,MADRS apparent sadness improvement,Day 1,5
same,MADRS apparent sadness score,Day 1,0
same,MADRS concentration difficulties improvement,Day 1,0
same,MADRS concentration difficulties score,Day 1,0
same,MADRS inability to feel improvement,Day 1,3
same,MADRS inability to feel score,Day 1,0
same,MADRS inner tension improvement,Day 1,5
same,MADRS inner tension score,Day 1,0
same,MADRS lassitude improvement,Day 1,3
same,MADRS lassitude score,Day 1,0
same,MADRS pessimistic thoughts improvement,Day 1,4
same,MADRS pessimistic thoughts score,Day 1,0
same,MADRS reduced appetite improvement,Day 1,0
same,MADRS reduced appetite score,Day 1,0
same,MADRS reduced sleep improvement,Day 1,5
same,MADRS reduced sleep score,Day 1,0
same,MADRS reported sadness improvement,Day 1,4
same,MADRS reported sadness score,Day 1,0
same,MADRS suicidal thoughts improvement,Day 1,0
same,MADRS suicidal thoughts score,Day 1,0
same,BIMF functional domain Adjustment score,Day 7,6
same,BIMF functional domain Infant Care score,Day 7,12
same,BIMF functional domain Management score,Day 7,33
same,BIMF functional domain Mother-Child Interaction score,Day 7,17
same,BIMF functional domain Psychological Well-being score,Day 7,53
same,BIMF functional domain Self-Care score,Day 7,13
same,BIMF functional domain Social Support score,Day 7,18
same,BIMF item 1 score (I am a good mother),Day 7,6
same,BIMF item 2 score (I feel rested),Day 7,2
same,BIMF item 3 score (I am comfortable with the way I've chosen to feed my baby),Day 7,6
same,BIMF item 4 score (My baby and I understand each other),Day 7,5
same,BIMF item 5 score (I am able to relax and enjoy time with my baby),Day 7,6
same,BIMF item 6 score (There are people in my life that I can trust to care for my baby),Day 7,6
same,BIMF item 8 score (I am getting enough adult interaction),Day 7,6
same,BIMF item 9 score (I am getting enough encouragement from other people),Day 7,6
same,BIMF item 10 score (I trust my own feelings (instincts)),Day 7,6
same,BIMF item 11 score (I take a little time each week to do something for myself),Day 7,6
same,BIMF item 12 score (I am taking good care of my baby's physical needs),Day 7,6
same,BIMF item 13 score (I am taking good care of my physical needs),Day 7,5
same,BIMF item 14 score (I make good descisions about my baby's health and well being),Day 7,6
same,BIMF item 15 score (My baby and I are getting into a routine),Day 7,6
same,BIMF item 16 score (I worry about how other people judge me),Day 7,5
same,BIMF item 17 score (I am able to take care of my baby and my other responsibilites),Day 7,5
same,BIMF item 18 score (Anxiety or worry often interferes with my mothering ability),Day 7,1
same,"BIMF item 19 score (As time goes on, I am getting better at taking care of my baby)",Day 7,1
same,BIMF item 20 score (I am satisfied with the job I am doing as a new mother),Day 7,5
same,BPRS anxiety improvement,Day 7,6
same,BPRS anxiety score,Day 7,1
same,BPRS blunted affect improvement,Day 7,0
same,BPRS blunted affect score,Day 7,1
same,BPRS conceptual disorganization improvement,Day 7,0
same,BPRS conceptual disorganization score,Day 7,1
same,BPRS depressive mood improvement,Day 7,5
same,BPRS depressive mood score,Day 7,1
same,BPRS disorientation improvement,Day 7,0
same,BPRS disorientation score,Day 7,1
same,BPRS emotional withdrawal improvement,Day 7,4
same,BPRS emotional withdrawal score,Day 7,1
same,BPRS excitement improvement,Day 7,1
same,BPRS excitement score,Day 7,1
same,BPRS grandiosity improvement,Day 7,0
same,BPRS grandiosity score,Day 7,1
same,BPRS guilt feelings improvement,Day 7,5
same,BPRS guilt feelings score,Day 7,1
same,BPRS hallucinatory behaviour improvement,Day 7,0
same,BPRS hallucinatory behaviour score,Day 7,1
same,BPRS hostility improvement,Day 7,0
same,BPRS hostility score,Day 7,1
same,BPRS mannerisms and posturing improvement,Day 7,0
same,BPRS mannerisms and posturing score,Day 7,1
same,BPRS motor retardation improvement,Day 7,0
same,BPRS motor retardation score,Day 7,1
same,BPRS somatic concern improvement,Day 7,5
same,BPRS somatic concern score,Day 7,1
same,BPRS suspiciousness improvement,Day 7,0
same,BPRS suspiciousness score,Day 7,1
same,BPRS tension improvement,Day 7,5
same,BPRS tension score,Day 7,1
same,BPRS uncooperativeness improvement,Day 7,0
same,BPRS uncooperativeness score,Day 7,1
same,BPRS unusual thought content improvement,Day 7,0
same,BPRS unusual thought content score,Day 7,1
same,MADRS apparent sadness improvement,Day 7,5
same,MADRS apparent sadness score,Day 7,0
same,MADRS concentration difficulties improvement,Day 7,0
same,MADRS concentration difficulties score,Day 7,0
same,MADRS inability to feel improvement,Day 7,3
same,MADRS inability to feel score,Day 7,0
same,MADRS inner tension improvement,Day 7,4
same,MADRS inner tension score,Day 7,1
same,MADRS lassitude improvement,Day 7,3
same,MADRS lassitude score,Day 7,0
same,MADRS pessimistic thoughts improvement,Day 7,4
same,MADRS pessimistic thoughts score,Day 7,0
same,MADRS reduced appetite improvement,Day 7,0
same,MADRS reduced appetite score,Day 7,0
same,MADRS reduced sleep improvement,Day 7,5
same,MADRS reduced sleep score,Day 7,0
same,MADRS reported sadness improvement,Day 7,4
same,MADRS reported sadness score,Day 7,0
same,MADRS suicidal thoughts improvement,Day 7,0
same,MADRS suicidal thoughts score,Day 7,0
same,BIMF Adjustment % improvement,Day 7 vs Day 0,20.00%
same,BIMF Adjustment Δ,Day 7 vs Day 0,1
same,BIMF Infant Care % improvement,Day 7 vs Day 0,0.00%
same,BIMF Infant Care Δ,Day 7 vs Day 0,0
same,BIMF Management % improvement,Day 7 vs Day 0,18%
same,BIMF Management Δ,Day 7 vs Day 0,5
same,BIMF Mother-Child Interaction Δ,Day 7 vs Day 0,2
same,BIMF Psychological Well-being Δ,Day 7 vs Day 0,9
same,BIMF Self-Care % improvement,Day 7 vs Day 0,44%
same,BIMF Self-Care Δ,Day 7 vs Day 0,4
same,BIMF Social Support Δ,Day 7 vs Day 0,1
same,BIMF item 1 Δ,Day 7 vs Day 0,0
same,BIMF item 2 Δ,Day 7 vs Day 0,2
same,BIMF item 3 Δ,Day 7 vs Day 0,0
same,BIMF item 4 Δ,Day 7 vs Day 0,0
same,BIMF item 5 Δ,Day 7 vs Day 0,1
same,BIMF item 6 Δ,Day 7 vs Day 0,0
same,BIMF item 7 Δ,Day 7 vs Day 0,0
same,BIMF item 8 Δ,Day 7 vs Day 0,0
same,BIMF item 9 Δ,Day 7 vs Day 0,1
same,BIMF item 10 Δ,Day 7 vs Day 0,1
same,BIMF item 11 Δ,Day 7 vs Day 0,1
same,BIMF item 12 Δ,Day 7 vs Day 0,0
same,BIMF item 13 Δ,Day 7 vs Day 0,1
same,BIMF item 14 Δ,Day 7 vs Day 0,0
same,BIMF item 15 Δ,Day 7 vs Day 0,1
same,BIMF item 16 Δ,Day 7 vs Day 0,2
same,BIMF item 17 Δ,Day 7 vs Day 0,0
same,BIMF item 18 Δ,Day 7 vs Day 0,1
same,BIMF item 19 Δ,Day 7 vs Day 0,1
same,BIMF item 20 Δ,Day 7 vs Day 0,−1
same,BIMF total score Δ,Day 7 vs Day 0,13
same,time to clinical remission,after administration,≤ 2 h
same,time to clinical response,after administration,≤ 2 h
same,BPRS anxiety improvement,discharge,6
same,BPRS anxiety score,discharge,1
same,BPRS blunted affect improvement,discharge,0
same,BPRS blunted affect score,discharge,1
same,BPRS conceptual disorganization improvement,discharge,0
same,BPRS conceptual disorganization score,discharge,1
same,BPRS depressive mood improvement,discharge,5
same,BPRS depressive mood score,discharge,1
same,BPRS disorientation improvement,discharge,0
same,BPRS disorientation score,discharge,1
same,BPRS emotional withdrawal improvement,discharge,4
same,BPRS emotional withdrawal score,discharge,1
same,BPRS excitement improvement,discharge,1
same,BPRS excitement score,discharge,1
same,BPRS grandiosity improvement,discharge,0
same,BPRS grandiosity score,discharge,1
same,BPRS guilt feelings improvement,discharge,5
same,BPRS guilt feelings score,discharge,1
same,BPRS hallucinatory behaviour improvement,discharge,0
same,BPRS hallucinatory behaviour score,discharge,1
same,BPRS hostility improvement,discharge,0
same,BPRS hostility score,discharge,1
same,BPRS mannerisms and posturing improvement,discharge,0
same,BPRS mannerisms and posturing score,discharge,1
same,BPRS motor retardation improvement,discharge,0
same,BPRS motor retardation score,discharge,1
same,BPRS somatic concern improvement,discharge,5
same,BPRS somatic concern score,discharge,1
same,BPRS suspiciousness improvement,discharge,0
same,BPRS suspiciousness score,discharge,1
same,BPRS tension score,discharge,1
same,BPRS uncooperativeness improvement,discharge,0
same,BPRS uncooperativeness score,discharge,1
same,BPRS unusual thought content improvement,discharge,0
same,BPRS unusual thought content score,discharge,1
same,vital parameters,shortly after administration,"temporary, clinically non-relevant increase in heart rate and blood pressure"
